The source of these data is patent US20260027073A1, “USE OF SMALL-MOLECULE COMPOUND HAVING NAPHTHYLAMINE STRUCTURE” (HANGZHOU PHECDAMED CO., LTD., priority 2023, published 2026).

Data set [1] has as its system Androgen-induced benign prostatic hyperplasia in rats. Briefly: Androgen-induced benign prostatic hyperplasia. In kind it is in vivo, SD rats. The conditions noted are these: TJ01-013 30 mg/kg, Finasteride 10 mg/kg. The method, then: Androgen-induced benign prostatic hyperplasia in rats has been used in many research fields. The specific model was constructed as follows: 180 g-200 g male SD rats were given 30 mg/kg androgen intramuscularly every other day, and 15 consecutive androgen injections were given for modeling, and the experiments were divided into […], a negative control group (Sham), a model control group (Control), TJ01-013 treatment group (TJ01-013, 30 mg/kg), Finasteride treatment group (Finasteride, 10 mg/kg), and TJ01-013+Finasteride treatment group (13+F). The drug was administered at the same time as the androgen modeling, the mode of administration was by oral gavage, the volume of the administration was 10 ml/kg, the frequency of administration was daily, and the administration was ended on the 30th day, the rats were weighed and euthanized, and the prostate and urethra of the rats were taken and weighed, and the organ coefficients (weight of the prostate gland/weight of the rats) were finally calculated.

Data set [2] concerns CUMS animal model of depression. Briefly: CUMS depression model behavioral tests. It counts as in vivo, C57BL/6J mice. The conditions noted are these: Fluoxetine 30 mg/kg. An excerpt: Depression, also known as depressive disorder, is characterized by significant and long-lasting depressed state of mind as the main clinical feature. The CUMS animal model of depression is a chronic unpredictable animal stress model, which simulates part of the stressor, the external material environmental stimulus, and will cause dysfunctions in the animal organism through different stress stimuli, leading to occurrence of the psychiatric disease depression. […] During this period, carefully observing the status of each mouse. • (6) Basket shaking: Placing the mice in an empty basket and shaking the basket drastically, with the criterion that the mice in the basket are unable to stand firm and sway with the shaking of the basket, for 1 hour. • (7) Olfactory stimulation: Placing anise and other spices in the mice's baskets as a means of olfactory stimulation.
The above seven experiments were conducted randomly during a week as a way to achieve unpredictability with 4 weeks of continuous stimulation.
At the end of the modeling, an open field test experiment was conducted to screen the modeled animals and group the successful modeled animals into five groups: normal group (Control), model control group (Model), positive drug treatment group (Fluoxetine), TJ0113 10 mg/kg treatment group (10 mg/kg), […], TJ0113 30 mg/kg treatment group (30 mg/kg). There were 10 mice in each group, and the administration treatment was administered by gavage, the normal and model control groups were given vehicle treatment, the vehicle was 0.5% CMC-Na, the positive drug fluoxetine hydrochloride was solubilized in saline and administered at a dose of 30 mg/kg, and the TJ0113 vehicle was 0.5% CMC-Na, and administered at a dose of 10 mg/kg and 30 mg/kg, respectively. 4 weeks after the end of the administration, behavioral tests were performed.
• (1) Adaptive feeding: Adaptive feeding with 1% sucrose water and plain water for 2 d before the start of the test, at 1 d, interchanging the sugar water and plain water to avoid positional differences for the animals, and fasting food and water for 1 d after adaption; • (2) Formal test: after fasting food and water, 1% sucrose water and plain water were given to the animals (the initial mass of sugar water and plain water is known), and weighing the remaining mass of sugar water/plain water of each animal after 24 h, and calculating the consumption rates of sugar water A and plain water B; • (3) Data analysis: sugar water preference rate=(A/A+B)×100%.
• (1) adapting to the environment: placing the animals in the test environment for 60 min to adapt to the environment before the test; • (2) Formal test: fixing the rear 1/3 of the mouse tail with tape and suspending on the stand of the experimental apparatus, with the head 15 cm from the bottom; • (3) starting timing camera, and stopping after 6 min, and recording the immobility time of the mice within 4 min; • (4) At the end of the test, using 75% alcohol to wipe the bottom and inner wall of the chamber.
• (1) adapting to the environment: placing the animals in the test environment for 60 min to adapt to the environment before the test; • (2) Formal test: placing the animals to be tested in the middle of the open field, and using the ANY-Maze software to collect the data, the test time is 10 min, and the feces and urine must be removed at the end of each round and disinfected and wiped dry with 75% alcohol; • (3) Analysis of results: total moved distance and average speed during the activity, time spent in the center area and time spent in the corner area.

The test system of data set [3] is LPS-induced sepsis in mice. Briefly: LPS-induced sepsis survival. It counts as in vivo, C57 mice. The conditions noted are these: 8th day; 10 mg/kg intraperitoneal once a day; LPS alone about 20%; FIG. 33. As for the experimental part:
A constructed preclinical sepsis model is a LPS-induced sepsis in mice. Injection of purified LPS into mice by intraperitoneal route or intravenous route can lead to activation of the innate immune system and simulate fulminant Gram-negative bacterial infections, the specific modeling method is as follows: 20-25 g C57 mice were selected, and 20 mg/kg LPS was injected intraperitoneally according to the body weight (the LPS was dissolved with PBS), and the experiment was divided into three groups, a model control group (LPS), a positive control treatment group (prednisone, 10 mg/kg), TJ01-013 treatment group (TJ01-013, 10 mg/kg), the mode of administration was intraperitoneal injection, the volume of administration was 5 ml/kg, the frequency of administration was once a day, and the biological deaths and changes in body weights of the mice were observed and recorded every day, and the mice were regarded as physiologically dead if their body weights decreased by 20% or more compared with that before the administration of LPS. Survival curves were plotted based on deaths observed up to 8 days after administration.

The next data set relates to HGPS-MSC. Briefly: Senescence of HGPS patient derived mesenchymal stem cells. It counts as cell-based, human. The conditions noted are these: 10 μM. The method, then: Mesenchymal stem cells HGPS-MSC differentiated from pluripotent stem cells (iPSC) of patients with Hutchinson-Gilford Progeria Syndrome (HGPS) were taken for culture, and the experiment was divided into three groups, namely, young cells cultured for 7 generations, labeled as Con-Y; senescent cells cultured for 12 generations, labeled as Con-O; and the administration group to which 10 μM of TJ01-013 was added during the process of culture, similarly cultured up to the 12th generation, labeled as Con-O+TJ01-013; the drug administration group to which 10 μM positive drug Ionafarnib was added during the process of culture, similarly cultured up to the 12th generation, and labeled as Con-O+ Ionafarnib; after the end of the treatment, all the cells were placed under the microscope to observe the morphology of the cells, and the proportion of SA-β-gal+ cells was counted. The levels of DNA damage marker γ-H2AX and heterochromatin modification H3K9me3 after TJ01-013 treatment and Ionafarnib treatment were detected by immunofluorescence technique (the specific procedure was described previously).

Data set [4] is described as follows: In vitro liver microsomal stability test. The conditions noted are these: microsomes. As for the experimental part:
Ketanserin was selected as the reference compound. The specific method was as follows:
0.1 M K3PO4 (pH 7.4) buffer and 3×NADPH stock solution (6 mM, 5 mg/mL) were configured and preheated in a 37° C. water bath; configuration of the test compounds and the control compounds (spiking solution): adding 5 μL of the compound stock solution ([…]) into 95 μL of acetonitrile; configuration of 1.5 μM spiking solution in microsomes (0.75 mg/mL): adding 1.5 μL of spiking solution and 18.75 μL of liver microsomal solution (20 mg/mL) into 479.75 μL of K3PO4 buffer; adding 30 μL of spiking solution in microsomes into the multiwell plate, and incubating at 37° C. for 5 min; adding 15 μL of NADPH storage solution into each well to start to react, and timing; adding 150 μL of acetonitrile solution containing IS at 0 min, 5 min, 15 min, 30 min, and 45 min, respectively, stopping the reaction; oscillating for 10 min, and then centrifuging at 6,000 rpm for 15 min; taking 80 μL of supernatant from each well for LC/MS detection, and calculating T1/2.

The subject of data set [5] is LPS-induced acute lung injury mice. Briefly: LPS-induced acute lung injury. In kind it is in vivo, C57BL/6J mice. The method, then:
Male mice C57BL/6J aged 6-8 weeks and weighing 18-22 g were selected for the study. After fixing the mice, 50 μl of PBS was injected into the airways of the mice under direct laryngoscopic vision to form a control group, and 5 mg/kg of LPS (E.coil) was dissolved in 50 μl of PBS and dripped to form a model group. The experiments were divided into […], each having 6 mice, namely, NS group (control group, airway drip of 50 μl PBS), LPS group (model control group, airway drip of 50 μl LPS), LPS+10 mg/kg group (airway drip of 50 μl LPS and given 10 mg/kg TJ01-013 treatment), LPS+20 mg/kg group (airway drip of 50 μl LPS and given 20 mg/kg TJ01-013 treatment), LPS+30 mg/kg group (airway drip of 50 μl LPS and given 30 mg/kg TJ01-013 treatment), LPS+Sivelestat group (Positive control group, airway drip of 50 μl LPS and given 5 mg/kg Sivelestat treatment). All groups were administered […] by intraperitoneal injection in a volume of 200 μl 1 h and 7 h after airway drip, and the mice were euthanized 24 h later, bronchoalveolar lavage fluid (BALF) was taken, and the levels of inflammatory factors in the bronchoalveolar lavage fluid were detected and the changes in the transcriptional levels of tissue-associated inflammatory factors were observed. • (2) taking and observing of Bronchoalveolar lavage fluid (BALF)
Use chloral hydrate intraperitoneal injection to make mice die of rapid overdose anesthesia, place mice in supine position on the dissection table, fix the limbs, disinfect the skin of the neck of the mice with 75% ethanol, incise the skin along the midline of the neck, bluntly separate the subcutaneous connective tissues and muscles with hemostatic forceps, expose the trachea, separate connective tissues on both sides of the trachea and between the trachea and the esophagus, and free the trachea. Two surgical sutures about 20 cm long were threaded between the trachea and esophagus. A 24G intravenous cannula needle was inserted at a 30-degree angle from the connective tissue membrane between the thyroid cartilage and the cricoid cartilage, and the intravenous cannula needle was delivered in the direction of the tracheal eminence. A surgical suture placed between the tracheo-esophageal was ligated at the entry of the cannula into the trachea and at the distal end of the cannula, respectively, and tied as tightly as possible to secure the cannula and trachea. 0.8 ml of PBS was aspirated with a 1 ml syringe, and the syringe was connected to the inlet end of the intravenous cannula needle, and PBS was slowly injected into the trachea, stayed for 30 seconds and then was withdrawn back, and a milky white frothy liquid withdrawn back was visible, and the lavage was repeated three times, and the liquid was centrifuged at 1500 rpm/min for 10 min, and the supernatant was used for cytokine assay, and the cell precipitates were coated after resuspending with PBS for Giemsa staining and sorting and counting.
The levels of inflammatory factors (inflammatory factors including IL-6, CXCL1, CXCL2, etc.) in BALF supernatant were detected according to the instructions of the ELISA test kit.
The obtained cDNA was amplified on a 96-well PCR plate using a LightCycler 480 system, and the gene level was determined by using glyceraldehyde 3-phosphate dehydrogenase (GAPDH) as an internal standard.

Where [6] appears, read: TJ01-013 10, 20, 30 mg/kg, Sivelestat 5 mg/kg, FIG. 26.
[7] abbreviates: concentration-dependent for TJ01-013, FIG. 27.

Take `CC(C)(C)NC(=O)[C@H]1CC[C@H]2[C@@H]3CC[C@H]4NC(=O)C=C[C@]4(C)[C@H]3CC[C@]12C` [Finasteride]: the prostate weight entry in data set [1] (oral gavage daily to day 30, FIG. 34) is on record as “reduced”. For the same compound, the “organ coefficient of prostate” value in data set [1] (oral gavage daily, FIG. 35) is “reduced the organ coefficient of prostate, but there was no significant difference”. Besides, the “weight of urethra and bladder” value in data set [1] (oral gavage daily, FIG. 36) was “tendency of decreasing its weight”.
`CNCCC(Oc1ccc(C(F)(F)F)cc1)c1ccccc1` (stereo not shown) [Fluoxetine, reference compound]: the “average movement speed, open field” value in data set [2] (TJ0113 10 mg/kg and 30 mg/kg, FIG. 61) is given as “significantly increased”. Besides, the sugar water preference entry in data set [2] (TJ0113 30 mg/kg, gavage, FIG. 57) is recorded as “significantly increased”. Further, the “time in despair (immobility), tail-hanging experiment” value in data set [2] (TJ0113 30 mg/kg, FIG. 58) was “significantly decreased”. Further, the “distance moved, open field” value in data set [2] (TJ0113 30 mg/kg, FIG. 59) was “significantly increased”. In addition, in data set [2] (TJ0113 30 mg/kg, FIG. 60), the “time in the edge area of the open field” value was “significantly decreased”.
`C[C@]12C=CC(=O)C=C1CC[C@@H]1[C@@H]2C(=O)C[C@@]2(C)[C@H]1CC[C@]2(O)C(=O)CO` [prednisone, reference compound]: the survival rate in data set [3] came out at 100%.
In the case of `NC(=O)N1CCC(CC(=O)N2CCC([C@H]3c4ncc(Br)cc4CCc4cc(Cl)cc(Br)c43)CC2)CC1` [Ionafarnib, reference compound], the “percentage of SA-β-gal+ cells” value in the data set on HGPS-MSC (12th generation, vs Con-O, FIG. 54) is “significantly decreased”. Further, the “level of DNA damage marker γ-H2AX” value with HGPS-MSC (FIG. 55) was “significantly reduced”. Moreover, in the data set on HGPS-MSC (FIG. 56), the “expression level of heterochromatin-modified H3K9me3” value was “restored its expression level to some extent”.
Turning to `CN(c1cc([S+]([O-])CC(=O)O)c(O)c2ccccc12)S(=O)(=O)c1ccc(Br)cc1` (stereo not shown) [I-2], the “liver microsomal stability (elimination half-life T1/2)” value in data set [4] is “superior liver microsomal stability”.
For `CC(C)(C)C(=O)Oc1ccc(S(=O)(=O)Nc2ccccc2C(=O)NCC(=O)O)cc1` [Sivelestat, reference compound], in data set [5] (setting [6]), the “CXCL1 level in alveolar lavage fluid (ELISA)” value is “significantly decreased”, the “CXCL2 level in alveolar lavage fluid (ELISA)” value was “no significant effect” and the “IL-6 level in alveolar lavage fluid (ELISA)” value is listed as “no significant effect”. In addition, in data set [5] (setting [7]), the “CXCL1 transcript level in lung tissue” value is on record as “significantly decreased”, the “CXCL2 transcript level in lung tissue” value was “no significant effect” and the “IL-6 transcript level in lung tissue” value was “no significant effect”.
